Reference: ChEMBL document CHEMBL1201862, “PubChem BioAssay data set” (2004)
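The compound was tested at five concentrations on cells cultured in 96-well plates, with a 48-hour exposure period. GI50 is the concentration that inhibits growth by half.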 The source made the active and inactive calls. Cut-off read from the data, not from the text of the source: active = GI50 up to about 1.1 µM and inactive = higher.

Experiments:
Experiment in all cases: NCI anticancer screen, dose series, 48 h
HL-60 = tested on: HL-60
SNB-19 = tested on: SNB-19
OVCAR-5 = tested on: OVCAR-5
NCI/ADR-RES = tested on: NCI/ADR-RES
SF-539 = tested on: SF-539
MDA-MB-231 = tested on: MDA-MB-231
MDA-MB-435 = tested on: MDA-MB-435
CCRF-CEM = tested on: CCRF-CEM
MOLT-4 = tested on: MOLT-4
SK-OV-3 = tested on: SK-OV-3
NCI-H522 = tested on: NCI-H522
OVCAR-4 = tested on: OVCAR-4
A549 = tested on: A549
UACC-62 = tested on: UACC-62
UACC-257 = tested on: UACC-257
786-0 = tested on: 786-0
LOX IMVI = tested on: LOX IMVI
K562 = tested on: K562
SR = tested on: SR

Row | Structure (SMILES) | GI50 (HL-60) | GI50 (SNB-19) | GI50 (OVCAR-5) | GI50 (NCI/ADR-RES) | GI50 (SF-539) | GI50 (MDA-MB-231) | GI50 (MDA-MB-435) | GI50 (CCRF-CEM) | GI50 (MOLT-4) | GI50 (SK-OV-3) | GI50 (NCI-H522) | GI50 (OVCAR-4) | GI50 (A549) | GI50 (UACC-62) | GI50 (UACC-257) | GI50 (786-0) | GI50 (LOX IMVI) | GI50 (K562) | GI50 (SR)
1 | Cc1cccc2sc(NC(=O)NS(=O)(=O)n3cnc4ccccc43)nc12 | 31.5 µM (inactive) | 38 µM (inactive) | 25.9 µM (inactive) | 27.4 µM (inactive) | 24 µM (inactive) | 27 µM (inactive) | 27.9 µM (inactive) | 76.6 µM (inactive) | 26.5 µM (inactive) | 38.3 µM (inactive) | 21.6 µM (inactive) | 43.8 µM (inactive) | 37.5 µM (inactive) | 18.3 µM (inactive) | 23 µM (inactive) | 33.8 µM (inactive) | – | – | –
2 | CC1=C(/C=C/C(C)=C/C=C/C(C)=C/C(=O)Nc2ccc(O)cc2)C(C)(C)CCC1 [FENRETINIDE] | 0.893 µM (active) | 6.5 µM (inactive) | 10.6 µM (inactive) | 2.71 µM (inactive) | 1.05 µM (active) | 2.95 µM (inactive) | 3.09 µM (inactive) | 0.057 µM (active) | 1.11 µM (active) | 6.68 µM (inactive) | 0.929 µM (active) | 3.94 µM (inactive) | 5.97 µM (inactive) | 2.12 µM (inactive) | 9.71 µM (inactive) | 2.58 µM (inactive) | 1.74 µM (inactive) | 2.69 µM (inactive) | –
3 | CN1N=C(c2ccccc2)C(C(c2ccccc2[N+](=O)[O-])C2C(=O)N(C)N=C2c2ccccc2)C1=O (centres undefined) | 18.7 µM (inactive) | > 100 µM (inactive) | > 100 µM (inactive) | > 100 µM (inactive) | > 55.5 µM (inactive) | > 100 µM (inactive) | > 100 µM (inactive) | 26.8 µM (inactive) | 37.6 µM (inactive) | > 100 µM (inactive) | 99.8 µM (inactive) | > 100 µM (inactive) | > 100 µM (inactive) | 61.2 µM (inactive) | > 71.4 µM (inactive) | > 70 µM (inactive) | 26.9 µM (inactive) | 33.9 µM (inactive) | –
4 | O=C(COc1ccc(Cl)cc1Cl)N/N=C/C=C/c1ccc([N+](=O)[O-])o1 | 3.76 µM (inactive) | 9.48 µM (inactive) | > 100 µM (inactive) | 11.9 µM (inactive) | 7.31 µM (inactive) | 6.95 µM (inactive) | 2.63 µM (inactive) | 3.13 µM (inactive) | 2.28 µM (inactive) | 14.6 µM (inactive) | 1.04 µM (active) | 4.35 µM (inactive) | 8.24 µM (inactive) | 3.82 µM (inactive) | – | 12.3 µM (inactive) | 3.27 µM (inactive) | 4.43 µM (inactive) | –
5 | CS/C(C)=N/OC(=O)NCCCCNc1ccc(N=[N+]=[N-])cc1 | – | 66.4 µM (inactive) | > 100 µM (inactive) | – | 50.5 µM (inactive) | – | – | 24.2 µM (inactive) | 28.4 µM (inactive) | 37.9 µM (inactive) | 4.76 µM (inactive) | 42.9 µM (inactive) | 30.4 µM (inactive) | 21.8 µM (inactive) | 30.9 µM (inactive) | 76.7 µM (inactive) | 26.7 µM (inactive) | 30.8 µM (inactive) | 37.8 µM (inactive)
6 | O=C(CC(=O)Nc1ccccc1)N/N=C/c1cc(/N=N/c2ccc(Br)cc2)ccc1O | 2.44 µM (inactive) | – | – | 2.88 µM (inactive) | 4.05 µM (inactive) | 3.26 µM (inactive) | – | 1.54 µM (inactive) | 1.35 µM (inactive) | 8.87 µM (inactive) | – | 2.09 µM (inactive) | > 10 µM (inactive) | 2.28 µM (inactive) | 2.08 µM (inactive) | 4 µM (inactive) | 4.28 µM (inactive) | 2.96 µM (inactive) | 1.39 µM (inactive)
7 | CC(=O)/C=C1\Nc2sc(C)c(C)c2C(=O)S1 | 32.1 µM (inactive) | > 100 µM (inactive) | > 100 µM (inactive) | 37.1 µM (inactive) | 24.5 µM (inactive) | 88.3 µM (inactive) | 47.3 µM (inactive) | 21.7 µM (inactive) | 10 µM (inactive) | > 100 µM (inactive) | – | 42.2 µM (inactive) | > 100 µM (inactive) | 65.8 µM (inactive) | 70 µM (inactive) | 62.8 µM (inactive) | 44.6 µM (inactive) | 60.4 µM (inactive) | –
8 | COc1ccc2c(c1)CC[C@@H]1[C@@H]2CC[C@]2(C)C(=O)/C(=C/c3ccc(N(C)C)cc3)C[C@@H]12 | > 100 µM (inactive) | 35.6 µM (inactive) | > 100 µM (inactive) | 33 µM (inactive) | > 100 µM (inactive) | 55.8 µM (inactive) | > 100 µM (inactive) | – | > 100 µM (inactive) | 53.7 µM (inactive) | – | 37.2 µM (inactive) | 41.9 µM (inactive) | 32.6 µM (inactive) | – | 29.2 µM (inactive) | – | – | –
